Results published in ChEMBL document CHEMBL1201862, “PubChem BioAssay data set” (2004).
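48-hour exposure; five concentrations; linearly interpolated endpoints. The concentration for 50% growth inhibition is given as GI50.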 Calls of active or inactive are those of the source. No stated cut-off is given here; in the data, active = GI50 up to about 1.1 µM and inactive = higher.

How the values were obtained:
Test in all cases: NCI tumour cell line growth inhibition, 48 h
HL-60 = test system: HL-60
UACC-257 = test system: UACC-257
MDA-N = test system: MDA-N
HOP-92 = test system: HOP-92
SF-295 = test system: SF-295
RPMI-8226 = test system: RPMI-8226
TK-10 = test system: TK-10
MCF7 = test system: MCF7
OVCAR-4 = test system: OVCAR-4
EKVX = test system: EKVX
SF-539 = test system: SF-539
NCI-H226 = test system: NCI-H226
ACHN = test system: ACHN
K562 = test system: K562
NCI-H522 = test system: NCI-H522
A549 = test system: A549
RXF 393 = test system: RXF 393
KM12 = test system: KM12
BT-549 = test system: BT-549
DU-145 = test system: DU-145
HCC 2998 = test system: HCC 2998
LOX IMVI = test system: LOX IMVI
U-251 = test system: U-251
T47D = test system: T47D
IGROV-1 = test system: IGROV-1
MOLT-4 = test system: MOLT-4
OVCAR-5 = test system: OVCAR-5
MDA-MB-231 = test system: MDA-MB-231
PC-3 = test system: PC-3
UO-31 = test system: UO-31
OVCAR-3 = test system: OVCAR-3
SF-268 = test system: SF-268
NCI-H460 = test system: NCI-H460
NCI/ADR-RES = test system: NCI/ADR-RES
SK-MEL-2 = test system: SK-MEL-2
Hs-578T = test system: Hs-578T
SK-MEL-5 = test system: SK-MEL-5
SK-OV-3 = test system: SK-OV-3
NCI-H23 = test system: NCI-H23
A498 = test system: A498
SW-620 = test system: SW-620
COLO 205 = test system: COLO 205
HOP-62 = test system: HOP-62
OVCAR-8 = test system: OVCAR-8
HT-29 = test system: HT-29
SN12C = test system: SN12C
786-0 = test system: 786-0
SNB-19 = test system: SNB-19
HCT-15 = test system: HCT-15
SK-MEL-28 = test system: SK-MEL-28
UACC-62 = test system: UACC-62
CCRF-CEM = test system: CCRF-CEM
HCT-116 = test system: HCT-116
MDA-MB-435 = test system: MDA-MB-435
Malme-3M = test system: Malme-3M
M14 = test system: M14
CAKI-1 = test system: CAKI-1
SNB-75 = test system: SNB-75

`N=C(N)NS(=O)(=O)c1ccc(Nc2c3ccccc3nc3c(C(=O)NNCCO)cccc23)cc1` was tested, and the GI50 (HL-60) was 0.227 µM (active), the GI50 (UACC-257) was 0.22 µM (active) and the GI50 (MDA-N) was 0.136 µM (active). For the same molecule, the GI50 (HOP-92) was 0.284 µM (active), the GI50 (SF-295) was 0.407 µM (active) and the GI50 (RPMI-8226) was 0.137 µM (active). The GI50 (TK-10) was > 1 µM (active), the GI50 (MCF7) was 0.109 µM (active) and the GI50 (OVCAR-4) was 0.295 µM (active). For the same molecule, the GI50 (EKVX) was 0.361 µM (active), the GI50 (SF-539) was 0.303 µM (active) and the GI50 (NCI-H226) was 0.19 µM (active). The GI50 (ACHN) was 0.565 µM (active), the GI50 (K562) was 0.055 µM (active) and the GI50 (NCI-H522) was 0.127 µM (active). For the same molecule, the GI50 (A549) was 0.473 µM (active), the GI50 (RXF 393) was 0.186 µM (active) and the GI50 (KM12) was 0.141 µM (active). The GI50 (BT-549) was 0.121 µM (active), the GI50 (DU-145) was 0.578 µM (active) and the GI50 (HCC 2998) was 0.211 µM (active). The GI50 (LOX IMVI) was 0.165 µM (active), the GI50 (U-251) was 0.139 µM (active) and the GI50 (T47D) was 0.12 µM (active). For the same molecule, the GI50 (IGROV-1) was 0.153 µM (active), the GI50 (MOLT-4) was 0.184 µM (active) and the GI50 (OVCAR-5) was 0.499 µM (active). The GI50 (MDA-MB-231) was 0.261 µM (active), the GI50 (PC-3) was 0.303 µM (active) and the GI50 (UO-31) was 0.416 µM (active). For the same molecule, the GI50 (OVCAR-3) was 0.134 µM (active), the GI50 (SF-268) was 0.141 µM (active) and the GI50 (NCI-H460) was 0.158 µM (active). For the same molecule, the GI50 (NCI/ADR-RES) was > 1 µM (active), the GI50 (SK-MEL-2) was 0.156 µM (active) and the GI50 (Hs-578T) was 0.249 µM (active). For the same molecule, the GI50 (SK-MEL-5) was 0.123 µM (active), the GI50 (SK-OV-3) was > 1 µM (active) and the GI50 (NCI-H23) was 0.133 µM (active). The GI50 (A498) was > 1 µM (active), the GI50 (SW-620) was 0.164 µM (active) and the GI50 (COLO 205) was 0.183 µM (active). For the same molecule, the GI50 (HOP-62) was 0.193 µM (active), the GI50 (OVCAR-8) was 0.303 µM (active) and the GI50 (HT-29) was 0.352 µM (active). The GI50 (SN12C) was 0.282 µM (active), the GI50 (786-0) was 0.436 µM (active) and the GI50 (SNB-19) was 0.276 µM (active). For the same molecule, the GI50 (HCT-15) was 0.33 µM, the GI50 (SK-MEL-28) was 0.252 µM (active) and the GI50 (UACC-62) was 0.27 µM (active). For the same molecule, the GI50 (CCRF-CEM) was 0.0541 µM (active), the GI50 (HCT-116) was 0.156 µM (active) and the GI50 (MDA-MB-435) was 0.0585 µM (active). The GI50 (Malme-3M) was 0.14 µM (active), the GI50 (M14) was 0.21 µM (active) and the GI50 (CAKI-1) was 0.198 µM (active).

For `Nc1nc(O)nc2c1ncn2C1OC(CO)C(O)C1O` (centres undefined), the GI50 (SNB-75) was 6.18 µM (inactive), the GI50 (HL-60) was 22 µM (inactive) and the GI50 (UACC-257) was > 100 µM (inactive). For the same molecule, the GI50 (MDA-N) was 46.5 µM (inactive), the GI50 (HOP-92) was 57.1 µM (inactive) and the GI50 (SF-295) was > 100 µM (inactive). For the same molecule, the GI50 (RPMI-8226) was 61.7 µM (inactive), the GI50 (TK-10) was 38.5 µM (inactive) and the GI50 (MCF7) was 29 µM (inactive). The GI50 (OVCAR-4) was 37 µM (inactive), the GI50 (EKVX) was > 100 µM (inactive) and the GI50 (NCI-H226) was 69.3 µM (inactive). For the same molecule, the GI50 (ACHN) was 78.9 µM (inactive), the GI50 (K562) was 44.2 µM (inactive) and the GI50 (NCI-H522) was > 100 µM (inactive). For the same molecule, the GI50 (A549) was > 100 µM (inactive), the GI50 (RXF 393) was 72.3 µM (inactive) and the GI50 (KM12) was > 100 µM (inactive). The GI50 (BT-549) was > 100 µM (inactive), the GI50 (DU-145) was 23.5 µM (inactive) and the GI50 (HCC 2998) was 25.7 µM (inactive). For the same molecule, the GI50 (LOX IMVI) was 38.8 µM (inactive), the GI50 (U-251) was > 100 µM (inactive) and the GI50 (T47D) was 25.1 µM (inactive). The GI50 (IGROV-1) was > 100 µM (inactive), the GI50 (MOLT-4) was 26.1 µM (inactive) and the GI50 (OVCAR-5) was > 100 µM (inactive). The GI50 (MDA-MB-231) was 38 µM (inactive), the GI50 (PC-3) was 22.6 µM (inactive) and the GI50 (UO-31) was 49.9 µM (inactive). For the same molecule, the GI50 (OVCAR-3) was 52.7 µM (inactive), the GI50 (SF-268) was > 100 µM (inactive) and the GI50 (NCI-H460) was > 100 µM (inactive). The GI50 (NCI/ADR-RES) was 22.6 µM (inactive), the GI50 (SK-MEL-2) was 64.4 µM (inactive) and the GI50 (Hs-578T) was > 100 µM (inactive). For the same molecule, the GI50 (SK-MEL-5) was > 100 µM (inactive), the GI50 (SK-OV-3) was 40.2 µM (inactive) and the GI50 (NCI-H23) was > 100 µM (inactive). The GI50 (A498) was > 100 µM (inactive), the GI50 (SW-620) was 50.7 µM (inactive) and the GI50 (COLO 205) was > 100 µM (inactive). The GI50 (HOP-62) was > 100 µM (inactive), the GI50 (OVCAR-8) was 23.8 µM (inactive) and the GI50 (HT-29) was > 100 µM (inactive). For the same molecule, the GI50 (SN12C) was 33.1 µM (inactive), the GI50 (786-0) was 97.5 µM (inactive) and the GI50 (SNB-19) was > 100 µM (inactive). For the same molecule, the GI50 (HCT-15) was 28.4 µM, the GI50 (SK-MEL-28) was > 100 µM (inactive) and the GI50 (UACC-62) was > 100 µM (inactive). For the same molecule, the GI50 (CCRF-CEM) was 33 µM (inactive), the GI50 (HCT-116) was 45 µM (inactive) and the GI50 (MDA-MB-435) was 57.5 µM (inactive). For the same molecule, the GI50 (Malme-3M) was > 100 µM (inactive), the GI50 (M14) was 39.9 µM (inactive) and the GI50 (CAKI-1) was 54 µM (inactive).
